In publication PMC5601071 (Frontiers in Pharmacology, 2017):
Residues, ends and D or L forms follow the SMILES beside them. *: point of attachment. Dansyl = CN(C)c1cccc2c(S(=O)(=O)*)cccc12; Fmoc = O=C(OCC1c2ccccc2-c2ccccc21)*; Stearoyl = CCCCCCCCCCCCCCCCCC(=O)*; Palmitoyl = CCCCCCCCCCCCCCCC(=O)*; Myristoyl = CCCCCCCCCCCCCC(=O)*; For = O=C*

Molecular target: T1, TREK-1 channel (hTREK-1/HEK cells) (Homo sapiens, UniProt O95069)
T1 construct: expressed in transfected cells
T1 sequence (O95069 1-426): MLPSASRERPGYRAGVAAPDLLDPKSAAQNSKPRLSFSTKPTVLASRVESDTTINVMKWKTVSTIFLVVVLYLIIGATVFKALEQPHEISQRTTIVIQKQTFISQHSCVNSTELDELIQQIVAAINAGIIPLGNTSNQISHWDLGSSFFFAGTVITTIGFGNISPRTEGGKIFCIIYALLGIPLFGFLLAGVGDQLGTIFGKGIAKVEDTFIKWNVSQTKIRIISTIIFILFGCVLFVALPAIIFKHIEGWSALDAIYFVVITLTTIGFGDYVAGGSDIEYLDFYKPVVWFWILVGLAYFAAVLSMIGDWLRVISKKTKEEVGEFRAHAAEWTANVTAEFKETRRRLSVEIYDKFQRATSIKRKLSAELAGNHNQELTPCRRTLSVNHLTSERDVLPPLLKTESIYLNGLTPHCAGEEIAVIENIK
Test: TREK-1 current inhibition, whole-cell patch-clamp on hTREK-1/HEK cell line
Type: cell-based
Details: HEK293, peptide 100 nM; TREK-1 first activated with 10 μM arachidonic acid (AA); current density at 0 mV; hTREK-1/HEK cells; mean ± SEM, n = cells; read-out: % of TREK-1 inhibition
Description: The human TREK-1/HEK cell line (Moha ou Maati et al., [2011]) and the native HEK293 cell line were maintained in Dulbecco's Modified Eagle's Medium (DMEM) supplemented with 10% (v/v) heat-inactivated fetal bovine serum, 1% (v/v) penicillin-streptomycin, 1% Glutamax. For the hTREK-1/HEK cells, 0.5 mg/ml G418 were added to the medium.
Cells were incubated in a humidified atmosphere containing 5% CO2. For electrophysiological measurements, cells were plated at a density of 20,000 cells per 35 mm dish.
Cells from the hTREK-1/HEK cell line were seeded at a density of 20,000 cells/35 mm dish. Electrophysiological recordings were performed 24–48 h after plating using the whole-cell configuration of patch-clamp technique. TREK-1 currents (ITREK−1) were recorded using RK400 patch-clamp amplifier (Axon Instrument, USA). They were low-pass filtered at 3 kHz and digitized at 10 kHz using a 12-bit analog-to-digital converter digidata (1322 series, Axon Instrument, USA). ITREK−1amplitudes were expressed as current densities [current amplitude (pA)/membrane capacitance (pF)]. The results were expressed as mean ± SEM (standard error of the mean).
Cells were continuously perfused using an external bath solution containing in mM: 150 NaCl, 5 KCl, 3 MgCl2, 1 CaCl2, and 10 HEPES. The bath solution was initially adjusted to pH 7.4 with NaOH. The intra-pipette solution contained in mM: 155 KCl, 3 MgCl2, 5 EGTA, and 10 HEPES adjusted to pH 7.2 with KOH. In order to measure ITREK−1, a cocktail of potassium channel blockers was added to the bath solution. This cocktail contained: 3 mM 4-AP (4-aminopyridine), 10 mM TEA (tetraethylammonium), 10 μM Glibenclamide, 100 nM Apamin, and 50 nM Charybdotoxin. Data acquisition was carried out using a computer (Dell Pentium) with pClamp software (Axon Instrument, USA). Whole-cell currents were generated by running a pulse or ramp protocol every 5 s from −100 to +60 mV with a holding potential maintained at −80 mV. To evaluate the inhibitory effect on TREK-1 channels of shortened spadin analogs compared with spadin, cells were first activated by 10 μM arachidonic acid (AA). Dose-response curves were realized to compare spadin-analog effects with spadin using Origin 8.6 (Northampton, MA, USA).
Patch-clamp recording data were analyzed using Clampfit (Molecular Devices, USA). I = f(V) curves were obtained from −100 to +60 mV ramp. Data were presented as mean ± SEM.

CC[C@H](C)[C@H](NC(=O)[C@@H]1CCCN1)C(=O)NCC(=O)N[C@H](C(=O)N[C@@H](CO)C(=O)N[C@@H](Cc1c[nH]c2ccccc12)C(=O)NCC(=O)N[C@@H](CC(C)C)C(=O)N[C@@H](CCCNC(=N)N)C(=O)O)C(C)C [PI-PE 22-28] (H-PIGVSWGLR-OH) was tested. Which inhibition at 0.1 µM did it give?
Its inhibition at 0.1 µM is 46.2 ± 7.57%.

CCOC(=O)[C@H](CCCNC(=N)N)NC(=O)[C@H](CC(C)C)NC(=O)CNC(=O)[C@H](Cc1c[nH]c2ccccc12)NC(=O)[C@H](CO)NC(=O)[C@@H](NC(=O)CN)C(C)C [PE 22-28-O-Ethyl] (H-GVSWGLR-OEt) was tested. Which inhibition at 0.1 µM did it give?
Its inhibition at 0.1 µM is 41.4 ± 11.5%.

CC(C)C[C@H](NC(=O)CNC(=O)[C@H](Cc1c[nH]c2ccccc12)NC(=O)[C@H](CO)NC(=O)[C@@H](NC(=O)[C@H](C)N)C(C)C)C(=O)N[C@@H](CCCNC(=N)N)C(=O)O [G/A-PE 22-28] (H-AVSWGLR-OH) was tested. Which inhibition at 0.1 µM did it give?
The inhibition at 0.1 µM was 50.6 ± 7.93%.

How did the inhibition at 0.1 µM turn out when CC(C)C[C@H](NC(=O)CNC(=O)[C@H](Cc1c[nH]c2ccccc12)NC(=O)[C@H](CO)NC(=O)[C@@H](NC(=O)CN)C(C)C)C(=O)N[C@@H](CCCNC(=N)N)C(=O)O [PE 22-28] (H-GVSWGLR-OH) was run?
Its inhibition at 0.1 µM is 55.5 ± 4.55%.

Same assay, conditions: HEK293, read-out: % of TREK-1 inhibition

Which inhibition at 0.1 µM does the source give for CC(C)C[C@H](NC(=O)CNC(=O)[C@H](Cc1c[nH]c2ccccc12)NC(=O)[C@H](CO)NC(=O)[C@@H](NC(=O)CNC=O)C(C)C)C(=O)N[C@@H](CCCNC(=N)N)C(=O)O [Formyl-PE 22-28] (For-GVSWGLR-OH) here?
The inhibition at 0.1 µM was 32.5 ± 12.2%.

CC(C)C[C@H](NC(=O)CNC(=O)[C@H](Cc1c[nH]c2ccccc12)NC(=O)[C@H](CO)NC(=O)[C@@H](NC(=O)CNC(=O)OCC1c2ccccc2-c2ccccc21)C(C)C)C(=O)N[C@@H](CCCNC(=N)N)C(=O)O [F-Moc-PE 22-28] (Fmoc-GVSWGLR-OH) was tested. Which inhibition at 0.1 µM did it give?
Its inhibition at 0.1 µM is 5.83 ± 10.9%.

With CC(C)C[C@H](NC(=O)CNC(=O)[C@H](Cc1c[nH]c2ccccc12)NC(=O)[C@H](CO)NC(=O)[C@@H](NC(=O)CNS(=O)(=O)c1cccc2c(N(C)C)cccc12)C(C)C)C(=O)N[C@@H](CCCNC(=N)N)C(=O)O [DansyI-PE 22-28] (Dansyl-GVSWGLR-OH) as the molecule, how does the inhibition at 0.1 µM read?
The inhibition at 0.1 µM was 48.8 ± 14.5%.

Which inhibition at 0.1 µM does the source give for CCCCCCCCCCCCCC(=O)NCC(=O)N[C@H](C(=O)N[C@@H](CO)C(=O)N[C@@H](Cc1c[nH]c2ccccc12)C(=O)NCC(=O)N[C@@H](CC(C)C)C(=O)N[C@@H](CCCNC(=N)N)C(=O)O)C(C)C [Myristoyl-PE 22-28] (Myristoyl-GVSWGLR-OH) here?
Its inhibition at 0.1 µM is 18 ± 17.8%.

For CCCCCCCCCCCCCCCCCC(=O)NCC(=O)N[C@H](C(=O)N[C@@H](CO)C(=O)N[C@@H](Cc1c[nH]c2ccccc12)C(=O)NCC(=O)N[C@@H](CC(C)C)C(=O)N[C@@H](CCCNC(=N)N)C(=O)O)C(C)C [Stearic acid-PE 22-28] (Stearoyl-GVSWGLR-OH), which inhibition at 0.1 µM is on record?
The inhibition at 0.1 µM was 5.41 ± 5.5%.

For CC(=O)NCC(=O)N[C@H](C(=O)N[C@@H](CO)C(=O)N[C@@H](Cc1c[nH]c2ccccc12)C(=O)NCC(=O)N[C@@H](CC(C)C)C(=O)N[C@@H](CCCNC(=N)N)C(=O)O)C(C)C [Acetyl-PE 22-28] (Ac-GVSWGLR-OH), which inhibition at 0.1 µM is on record?
The inhibition at 0.1 µM was 20.5 ± 8.78%.

With CCCCCCCCCCCCCCCC(=O)NCC(=O)N[C@H](C(=O)N[C@@H](CO)C(=O)N[C@@H](Cc1c[nH]c2ccccc12)C(=O)NCC(=O)N[C@@H](CC(C)C)C(=O)N[C@@H](CCCNC(=N)N)C(=O)O)C(C)C [Palmitoyl-PE 22-28] (Palmitoyl-GVSWGLR-OH) as the molecule, how does the inhibition at 0.1 µM read?
The inhibition at 0.1 µM was 26.7 ± 16.4%.
